The source of these data is patent US6075060A, “Trans olefinic diols with surfactant properties” (Air Products and Chemicals, Inc., priority 1998, dated 2000).

Values after ≈ are worked out from the molar mass of the structure shown.

The nature of data set [1]: Equilibrium surface tension by maximum-bubble-pressure method. It counts as physicochemical. The following applies: for Equilibrium Surface Tension: 0.1 wt %, 23° C., 1 bubble/second, Table 2; for EST, trans olefin: 0.05 wt. %, Table 4; for EST of 0.1 wt % solution: cis and trans isomers, Table 7; for EST at Solubility Limit: trans isomers, Table 8. On the procedure:
The equilibrium surface tension is measured using the maximum-bubble-pressure method at 23° C. and 1 bubble/second. This method is described in Langmuir, Vol. 2 (1986), pp. 428-432. When measured at the solubility limit of the surfactant, an equilibrium surface tension of 40 dynes/cm or less is desired; preferably 35 dynes/cm or less.
The equilibrium surface tension was measured using the maximum-bubble-pressure method at 23° C. and 1 bubble/second at 0.1 wt %. The results, presented in Table 2, indicate that olefinic diols with 10 or less carbons are poor surfactants and the cis isomer has slightly better equilibrium surface tension than the trans isomer.
The equilibrium surface tension of the compounds of Examples 3, 4 and 5 was measured 0.05 wt. %.

Data set [2] can be described thus: Water solubility (solubility limit). It counts as physicochemical. As to conditions: for solubility: water.

As for `CCC(C)(O)/C=C\C(C)(O)CC` (stereo not drawn) [Example 2 cis], in data set [1], the “Equilibrium Surface Tension” value came out at 51 dynes/cm. Same read-out and setting: next, `CCC(C)(O)/C=C/C(C)(O)CC` (stereo not drawn) [Example 2 trans]: 59 dynes/cm. Consider `CCCCCCC(C)(O)/C=C/C(C)(O)CCCCCC` (centres unmarked) [Example 3], for which, in data set [1], the “EST, trans olefin” value is given as 67 DYNES/CM.

Regarding `CC(O)(/C=C/C(C)(O)c1ccccc1)c1ccccc1` (centres unmarked) [Example 4], the “EST, trans olefin” value in data set [1] stood at 67 DYNES/CM. The same measure, in the same setting: the result for `CCCCC(O)(/C=C/C(O)(CCCC)CCCC)CCCC` [Example 5] reads 69 DYNES/CM. As a reminder, the solubility is how much of the substance goes into solution per volume. Read a low solubility as little dissolved substance. For `CCC(O)(/C=C\C(O)(CC)CC)CC` [Example 6 cis, 3,6-diethyl-4-octene-3,6-diol], in data set [2] (cis and trans isomers, Table 7), the solubility was 100 µg/mL (≈ 499 µM). In data set [1], the “EST of 0.1 wt % solution” value is 54 dynes/cm.

In turn, `CCC(O)(/C=C/C(O)(CC)CC)CC` [Example 6 trans, 3,6-diethyl-4-octene-3,6-diol] returned a solubility in data set [2] (cis and trans isomers, Table 7) of 5000 µg/mL (≈ 25000 µM). Besides, the “EST of 0.1 wt % solution” value in data set [1] came out at 50 dynes/cm. With `CC(C)CC(C)(O)/C=C\C(C)(O)CC(C)C` (stereo not drawn) [Example 7 cis, 2,4,7,9-tetramethyl-5-decene-4,7-diol], the solubility in data set [2] (cis and trans isomers, Table 7) is < 100 µg/mL. Moreover, the “EST of 0.1 wt % solution” value in data set [1] is given as 58 dynes/cm. Consider `CC(C)CC(C)(O)/C=C/C(C)(O)CC(C)C` (stereo not drawn) [Example 7 trans, 2,4,7,9-tetramethyl-5-decene-4,7-diol], for which, in data set [2] (trans isomers, Table 8), the “Solubility Limit” value came out at 0.2 wt % in water. This molecule displayed a solubility in data set [2] (cis and trans isomers, Table 7) of 2000 µg/mL (≈ 8760 µM). Further, in data set [1], the “EST of 0.1 wt % solution” value came out at 34 dynes/cm and the “EST at Solubility Limit” value turned out to be 29 dynes/cm. `CC(C)CCC(C)(O)/C=C\C(C)(O)CCC(C)C` (stereo not drawn) [Example 8 cis, 2,5,8,11-tetramethyl-6-dodecene-5,8-diol]: the solubility in data set [2] (cis and trans isomers, Table 7) is < 100 µg/mL. For the same molecule, the “EST of 0.1 wt % solution” value in data set [1] was found to be 68 dynes/cm. Regarding `CC(C)CCC(C)(O)/C=C/C(C)(O)CCC(C)C` (stereo not drawn) [Example 8 trans, 2,5,8,11-tetramethyl-6-dodecene-5,8-diol], the “Solubility Limit” value in data set [2] (trans isomers, Table 8) came to 0.03 wt % in water. The same molecule came in with a solubility in data set [2] (cis and trans isomers, Table 7) of 300 µg/mL (≈ 1170 µM). In addition, in data set [1], the “EST of 0.1 wt % solution” value amounted to 33 dynes/cm and the “EST at Solubility Limit” value is listed as 33 dynes/cm. As to `CCCCC(C)(O)/C=C/C(C)(O)CCCC` (centres unmarked) [Example 9, 5,8-dimethyl-6-dodecene-5,8-diol], the solubility in data set [2] (trans isomers, Table 8) came to 1000 µg/mL (≈ 4380 µM). For the same molecule, the “EST at Solubility Limit” value in data set [1] is 33 dynes/cm.
